Laboratory results from a melting point compilation (Tetko et al.; mined from patent text by program, amines drawn as free bases though some values may be those of a salt).

SMILES | melting point
CCOC(=O)C1=C(COCCCCO)NC(C)=C(C(=O)OC)C1c1cccc(Cl)c1Cl (stereo not given) | 103 to 104 °C
C=C(C)COc1ccc(Cl)cc1CN(CC)c1ccc(C(=O)O)nn1 | 130 to 131 °C
COC(=O)c1c(C)[nH]c(-c2ncncc2Cl)c1C(=O)OC | 180 to 181 °C
CCC(=CC(CNC(=O)c1ccc(C)nc1)=NO)C(C)[N+](=O)[O-] (stereo not given) | 150 to 151 °C
COC(=O)c1cn(-c2cc(C(=O)OC)c(N)cc2C(F)(F)F)cn1 | 206 to 208 °C
COc1ccc2c(c1)C(=O)OC21CCN(C)CC1 | 123 to 125 °C
Cc1cc2c(=O)n3cc(C(N)=O)ccc3nc2s1 | 350 to 354 °C
OC1(c2ccc(Cl)c(Cl)c2)c2ccccc2C2=NCCN21 (stereo not given) | 203 to 205 °C
CC(=O)Nc1cc(N(CCO)CCO)ccc1N=Nc1snc(C)c1C#N | 188 to 189 °C
COc1ccc(N(CCCC(=O)N(CCCC(=O)O)c2c(C)cccc2C)C(=O)c2ccc(Cl)cc2)cc1 | 131 to 133 °C
Cc1ncc(CO)n1-c1ccc([N+](=O)[O-])cc1C(=O)c1ccccc1F | 188 to 192 °C
CC(=NOCCOc1ccc(CC2SC(=O)NC2=O)cc1)c1cccc(O)c1 (stereo not given) | 133 to 135 °C
CCc1cc2c(s1)S(=O)(=O)NC2=O | 143 °C
CC(=O)OCc1nc2cc(Cl)c(C)cc2c(=O)n1C | 110 to 112 °C
Cc1c(NC(=O)c2ccc(-c3ccc(F)cc3)cc2)ccc2cc(CN3CCC(CCCC(=O)N(C)C)CC3)cnc12 | 202 to 204 °C
CCCOc1ncc(NCC(=O)OC)cc1-c1nc2c(CCC)nn(C)c2c(=O)[nH]1 | 175 °C
CCC(CC)Cn1cc(C(=O)C(=O)O)c2cc(-c3ccc(OC(F)(F)F)cc3)ccc21 | 98 to 99 °C
CC(C)c1cccc(C(C)C)c1NC(=O)CS(=O)(=O)CCCl | 166 to 168 °C
O=[N+]([O-])c1cccc([N+](=O)[O-])c1NCCO | 77 °C
O=C(Cl)N1CC(Oc2ccc(Cl)cc2)C1 | 78 to 80 °C
CCCCCCN(CC(=O)O)CC(=O)O | 130 to 131 °C
Cc1cc(CCCCCCCOc2ccc(C(=O)OC(C)(C)C)cc2)on1 | 76 °C
COc1ccc(-c2ncc(C(F)(F)F)cc2Cl)cc1 | 71 to 72 °C

SMILES | melting point
CCCCCCCCC=CCCCCCCCC(N)=O | 68 °C
FC(F)(F)c1ccc(CN2CC3(COc4cc5c(cc43)CCO5)c3c(-c4cncnc4)cccc32)o1 (stereo not given) | 263 to 266 °C
CCOC(=O)C1=COc2cc(OC(C)=O)ccc2O1 | 88 °C
CCCCC(C(O)c1ccc(Cl)cc1)n1cncn1 (stereo not given) | 93 to 94 °C
O=C1C=C(O)CC(CCC2CCCC2)(C2CCCC2)O1 (stereo not given) | 130 to 132 °C
CC(=O)OCC1OC([NH+]2C=NC(C#N)=C2[O-])C(OC(C)=O)C1OC(C)=O (stereo not given) | 160 to 161 °C
CSc1nc(NCCC(C)C)c2ccnc-2[nH]1 | 157 to 158 °C
CCOC(=O)CCCCC(=O)c1c(C)cc(C)c(C)c1O | 72 to 73 °C
COCCS(=O)(=O)c1ccccc1S(=O)(=O)NC(=O)Nc1nc(OC)cc(OC)n1 | 187 to 192 °C
CN1C(=O)CCC(C)(C)c2cc([N+](=O)[O-])ccc21 | 115 °C
COC(=O)C1=C(C)NC(c2scnc2C)=NC1c1ccc(F)cc1Cl (stereo not given) | 145 to 147 °C
C=C(C)C(=O)OCCCc1ccc(-c2ccc(-c3ccc(OC(=O)C(=C)C)cc3F)c(F)c2)cc1 | 67 °C
O=C(C1CCN(S(=O)(=O)c2ccc(Br)cc2)CC1)N1CCC(c2ccncc2)CC1 | 154 to 155 °C
CC(C)OC(=O)Cc1ccc2c(c1)C(=O)c1sccc1CO2 | 92 to 94 °C
CC(C)CCCC(C)C1CCC2C3CCC4CC(OC=O)CCC4(C)C3CCC12C (stereo not given) | 107 to 108 °C
C[Si](C)(C)c1sccc1NC=O | 74 to 76 °C
CC(=O)OCC1OC(n2c(Cl)nc3ccc(Br)cc32)C(OC(C)=O)C1OC(C)=O (stereo not given) | 121 to 122 °C
COC(=O)c1ccc(Cc2cn(C)c3ccc(C=C(C)C(=O)O)cc23)c(OC)c1 | 182 to 183 °C
CSc1nnc(C(F)(F)F)n1C | 46 °C
CCOC(=O)c1ccc2c(c1)c(C)c(C)n2C(C)=O | 98 to 101 °C
O=c1[nH]c2ccc(S(=O)CCN3CCC(Cc4ccc(F)cc4F)CC3)cc2o1 (stereo not given) | 166 to 168 °C
CCCC1=C(C(=O)OC)C(c2ccccc2Cl)c2c[nH]nc2N1 (stereo not given) | 203 to 207 °C
CC1C(=O)N(c2cccc(Cl)c2)N=C1N (stereo not given) | 138 °C

SMILES | melting point
CCCC(=O)CC(=O)c1ccc(C2CCC(CC)CC2)cc1 (stereo not given) | 99 °C
Cc1oc(C=Cc2ccc(Cl)cc2)nc1CO | 129 to 130 °C
CC(C(=O)O)c1ccc(O)c(N)c1 (stereo not given) | 162 °C
CCOC(=O)c1cc2cc(C)sc2[nH]1 | 107 to 109 °C
CC1CCC(C(C)C)C(OC(=O)N[C@@]2(C)CCC(=O)NC2=O)C1 (stereo not given in full) | 170 to 172 °C
Cc1c(C#N)cnc(N)c1C#N | 222 to 223 °C
CCCCc1nc2c(N)nc3ccc(OCCC4CCNCC4)cc3c2n1C | 210 to 212 °C
Cc1cn(C)c2c1Nc1ccccc1NC2=O | 184 °C
COc1cc([N+](=O)[O-])c(CC(=O)O)c(Cl)c1O | 231 °C
Cn1nc(C(F)(F)F)c(C=O)c1O | 116 to 118 °C
CCCC1(CCC(C)=O)Cc2cc(CC(=O)O)c(Cl)c(Cl)c2C1=O (stereo not given) | 137 to 139 °C
Cc1ccc(S(=O)(=O)N2CCCC2C(=O)OC2c3cc(C#N)ccc3OC(C)(C)C2Br)cc1 (stereo not given) | 162 to 169 °C
CCC(=O)N1CCSc2cccc(Cl)c2C1 | 55 to 57 °C
CCOC(=O)c1[nH]c2c(c1OCC1CO1)CCCC2 (stereo not given) | 102 to 104 °C
COc1cc(NC(=O)CCCCCN2CCN(CCO)CC2)c2nccc(C)c2c1 | 88 to 90 °C
O=C(Nc1cccc2c1CC(O)CC2)c1ccc(-c2ccc(F)c(F)c2)cc1 (stereo not given) | 210 to 213 °C
COc1ccc2nccc(CCC[C@@H]3CCN(CCCc4cccs4)C[C@@H]3C(=O)O)c2c1 | 60 °C
CC(=O)c1cc(Cl)sc1S(N)(=O)=O | 178 to 179 °C
O=C(O)C1SCSCC12OCCO2 (stereo not given) | 195 to 197 °C
O=C(c1cccnc1)C1COCOC1 | 91 to 100 °C
COc1cc2c(cc1C(F)(F)F)N(C(=O)Nc1ccc(F)c(-c3cccnc3)c1)CC2 | 210 to 212 °C
CCOC(=O)c1[nH]c(C)c(C)c1OCCCCCl | 58 to 60 °C
CC1(C)CCc2c(N3CCCC3)nc3sc4c(NCC(=O)NCC5CCCO5)ncnc4c3c2C1 (stereo not given) | 210 to 211 °C

Continued, values first:

melting point | SMILES
75 to 77 °C | CCOC(=O)c1oc(Oc2ccccc2)nc1C(F)(F)F
243 to 244 °C | OCc1nccn1C(c1ccccc1)(c1ccccc1)c1ccccc1
127 to 128 °C | COc1cccc(CC(=O)O)c1OCCCc1cn(-c2cc(C(F)(F)F)ccn2)nc1C(C)C
86 to 90 °C | O=C1C[C@H](NC(=O)[C@H]2CCCN2C(=O)c2nc(CCCc3ccc(O)cc3)c[nH]2)[C@@H](OCc2ccccc2)O1
88 to 91 °C | CCCCOP(=O)(CCCCCC1(C(=O)NCC(F)(F)F)c2ccccc2-c2ccccc21)OCCCC
131 to 133 °C | Nc1ccc2c(c1)c(=O)[nH]c(=O)n2CCCCN1CCC(OC(c2ccccc2)c2ccccc2)CC1
106 to 107 °C | CCOC(=O)c1cc2cccc(NS(=O)(=O)c3ccccc3OC)c2n1COC
109 to 111 °C | CN(C)C(=O)c1c(Oc2ccccc2)cccc1Oc1ccccc1
236 to 237 °C | CC(C)Cn1c(C(=O)O)c(-c2ccc(F)cc2)c2cc(OCc3ccccc3)ccc2c1=O
158 to 159 °C | CC(C(N)=O)c1ccc2c(=O)c3ccccc3ccc2c1 (stereo not given)
233 to 234 °C | CC(C)n1c(-c2ccc(F)cc2)c(/C=C/C(=O)O)c2ccccc2c1=O
181 to 182 °C | C[C@@H](NC(=O)c1cnn(-c2ccc(Cl)cc2)c1C1CC1)[C@](O)(Cn1cncn1)c1ccc(F)cc1F
146 to 147 °C | CC(C)(C)c1ccc(CC(=O)CCCC2CCCCC2)cc1NC(=O)CC1c2ccccc2Oc2ccccc21
274 to 279 °C | CC(C)(C)C(=O)Nc1ccc(-c2ccncc2)cc1
170 °C | COCCOc1ccc(CCNC(=O)c2cnc3ccccc3c2)cc1S(N)(=O)=O
129 to 131 °C | COc1ccccc1S(=O)C1CC(=O)N1CC(=O)CCc1ccccc1 (stereo not given)

melting point | SMILES
203 to 205 °C | O=C1c2ccccc2N(Cc2ccccc2)C2=NCCN12
110 to 111 °C | CCn1cc(-c2cccc(C(F)(F)F)c2)c(=O)n1-c1cccc(C(F)(F)F)c1
65 °C | CCCc1nnc(C(Cc2ccc(-c3cccc(CN(C)C(=O)c4ccccc4)c3)cc2)Nc2ccccc2C(=O)c2ccccc2)o1 (stereo not given)
170 to 172 °C | O=C(O)Cn1c(=O)c2ccccc2n(CCCN2CCC(OC(c3ccccc3)c3ccccc3)CC2)c1=O
133 °C | Cc1cc(SCc2ccc(OCc3ccc(C(F)(F)F)cc3)cc2)ccc1OCC(=O)O
110 to 113 °C | COCCOc1ccc(CCCOC(=O)NS(=O)(=O)NCCc2ccccc2)c(Oc2ncc(C(F)(F)F)cc2Cl)c1
117 to 120 °C | COc1cc2c(cc1OC)CN(CCCCc1ccc(NC(=O)c3cccc4c(=O)cc(-c5ccccc5)oc34)cc1)CC2
90 to 91 °C | O=C1OCC(c2ccc([N+](=O)[O-])cc2)C1CSCc1ccccc1 (stereo not given)
220 to 221 °C | N#CN=C(Nc1cnc(Cl)c(N)c1)NC1(c2ccccc2)CCC1
155 °C | O=C(NN=C(Cc1ccccc1)c1ccccn1)OCc1ccccc1
119 to 121 °C | Cc1nc2cnccc2n1-c1ccc(OCc2cccc(SCc3nc4cc(F)ccc4s3)c2)cc1
72 °C | CCN(CC)C(=O)c1cc2ccccc2c(-c2ccccc2)n1
77 to 79 °C | Cc1c(OCc2ccccc2)cc(C(C)(C)C)cc1[N+](=O)[O-]
118 to 119 °C | Clc1ccc2nc(-c3ccccn3)nn2c1
209 to 210 °C | CCn1c2c(c3ccc(OC)cc31)CN(C(=O)c1ccc(C)c3ccccc13)CC2
